Laboratory results as given in patent publication US9523100B2, “Pesticidal compositions and related methods” (DOW AGROSCIENCES LLC, priority 2013, dated 2016).

How the values were obtained:
[1] = system: Green Peach Aphid (GPA) (Myzus persicae) (MYZUPE); assay: Bioassay for Green Peach Aphid (GPA), foliar spray on cabbage seedlings; assay type: in vivo; conditions: 72 h, 200 ppm foliar spray on cabbage seedlings, graded after three days, Abbott corrected % control, read-out: GPA 200 ppm, % Control (or Mortality) rating
Excerpt: Bioassay for Green Peach Aphid (GPA) (Myzus persicae) (MYZUPE)
The green peach aphid (Myzus persicae) is the most significant aphid pest of peach trees, causing decreased growth, shriveling of the leaves, and the death of various tissues. It is also hazardous because it acts as a vector for the transport of plant viruses, such as potato virus Y and potato leafroll virus to members of the nightshade/potato family Solanaceae, and various mosaic viruses to many other food crops. GPA attacks such plants as broccoli, burdock, cabbage, carrot, cauliflower, daikon, eggplant, green beans, lettuce, macadamia, papaya, peppers, sweet potatoes, tomatoes, watercress, and zucchini, among other plants GPA also attacks many ornamental crops such as carnation, chrysanthemum, flowering white cabbage, poinsettia, and roses. GPA has developed resistance to many pesticides.
Cabbage seedlings grown in 3-inch pots, with 2-3 small (3-5 cm) true leaves, were used as test substrate. The seedlings were infested with 20-50 GPA (wingless adult and nymph stages) one day prior to chemical application. Four pots with individual seedlings were used for each treatment. Test compounds (2 mg) were dissolved in 2 mL of acetone/methanol (1:1) solvent, forming stock solutions of 1000 ppm test compound. The stock solutions were diluted 5× with 0.025% Tween 20 in water to obtain the solution at 200 ppm test compound. A hand-held aspirator-type sprayer was used for spraying a solution to both sides of […] leaves until runoff. Reference plants (solvent check) were sprayed with the diluent only containing 20% by volume of acetone/methanol (1:1) solvent. Treated plants were held in a holding room for three days at approximately 25° C. and ambient relative humidity (RH) prior to grading. Evaluation was conducted by counting the number of live aphids per plant under a microscope. Percent control was measured by using Abbott's correction formula (W. S. Abbott, “A Method of Computing the Effectiveness of an Insecticide” J. Econ. Entomol. 18 (1925), pp. 265-267) as follows. Corrected % Control=100*(X−Y)/X
X=No. of live aphids on solvent check plants and
Y=No. of live aphids on treated plants
Biological Data for Green Peach Aphid (GPA) (MYZUPE) and Sweetpotato Whitefly-Crawler (WF) (BEMITA)” (see table section).
(§1) The mortality efficiency of the pesticidal compounds against GPA and WF insects was determined after treatment.

[2] = system: Sweetpotato Whitefly-Crawler (WF) (Bemisia tabaci) (BEMITA); assay: Insecticidal test for Sweetpotato Whitefly-Crawler (WF) in foliar spray assay on cotton plants; assay type: in vivo; conditions: 216 h, 200 ppm foliar spray on cotton plants, graded after 9 days, Abbott corrected % control, read-out: WF 200 ppm, % Control (or Mortality) rating
Excerpt: Insecticidal Test for Sweetpotato Whitefly-Crawler (WF) (Bemisia tabaci) (BEMITA) in Foliar Spray Assay
The sweetpotato whitefly (Bemisia tabaci) has been reported as a serious pest of cultivated crops world-wide. It has an extremely wide host range attacking more than 500 species of plants from 63 plant families. Weeds often serve as alternate hosts of crop pests. Direct feeding damage is caused by the piercing and sucking sap from the foliage of plants. This feeding causes weakening and early wilting of the plant and reduces the plant growth rate and yield Indirect damage results by the accumulation of honeydew produced by the whiteflies. Honeydew serves as a substrate for the growth of black sooty mold on leaves and fruit reducing photosynthesis and lessens the market value of the plant or yield. […] The sweetpotato whitefly is considered the most common and important whitefly vector of plant viruses worldwide.
Cotton plants (Gossypium hirsutum) grown in 3-inch pots, with 1 small (4-5 cm) true leaves, were used as test substrate. The plants were infested with 200-400 whitefly eggs 4-5 days prior to chemical application. Four pots with individual plants were used for each treatment. Test compounds (2 mg) were dissolved in 1 mL of acetone solvent, forming stock solutions of 2000 ppm test compound. The stock solutions were diluted 10× with 0.025% Tween 20 in water (diluents) to obtain the solution at 200 ppm test compound. A hand-held aspirator-type sprayer was used for spraying a solution to both sides of cotton leaves until runoff. Reference plants (solvent check) were sprayed with the diluent only containing 10% by volume of acetone solvent. Treated plants were held in a holding room for 9 days at approximately 25° C. and ambient relative humidity (RH) prior to grading. Evaluation was conducted by counting the number of live 3-4 nymph stage per plant under a microscope. Percent control was measured by using Abbott's correction formula (W. S. Abbott, “A Method of Computing the Effectiveness of an Insecticide” J. Econ. Entomol. 18 (1925), pp. 265-267) as follows.
Biological Data for Green Peach Aphid (GPA) (MYZUPE) and Sweetpotato Whitefly-Crawler (WF) (BEMITA)” (see table section). Corrected % Control=100*(X−Y)/X
X=No. of live nymphs on solvent check plants and
Y=No. of live nymphs on treated plants
as §1

SMILES | mortality at 200 ppm [1] [%] | mortality at 200 ppm [2] [%]
CCN(C(=O)CCC1CCN(CCC2CC2(F)F)C1=O)c1cn(-c2cccnc2)nc1Cl (centres unmarked) [FA62, N-(3-Chloro-1-(pyridin-3-yl)-1H-pyrazol-4-yl)-3-(1-(2-(2,2-difluorocyclopropyl)ethyl)-2-oxopyrrolidin-3-yl)-N-ethylpropanamide] | 80 to 100 | 80 to 100
CCN(C(=O)CC/C(=N\OCc1ccc(C(F)(F)F)nc1)c1cccs1)c1cn(-c2cccnc2)nc1Cl [FA36, (E)-N-(3-Chloro-1-(pyridin-3-yl)-1H-pyrazol-4-yl)-N-ethyl-4-(thiophen-2-yl)-4-(((6-(trifluoromethyl)pyridin-3-yl)methoxy)imino)butanamide] | 0 to 80 | 0 to 80
CCN(C(=O)CCC(=O)N(C)Cc1ccco1)c1cn(-c2cccnc2)nc1Cl [FA77, N1-(3-Chloro-1-(pyridin-3-yl)-1H-pyrazol-4-yl)-N1-ethyl-N4-(furan-2-ylmethyl)-N4-methylsuccinamide] | 0 to 80 | 80 to 100
CCN(C(=O)CN1CCSC1=O)c1cn(-c2cccnc2)nc1Cl [Compound F10, N-(3-Chloro-1-(pyridin-3-yl)-1H-pyrazol-4-yl)-N-ethyl-2-(2-oxothiazolidin-3-yl)acetamide] | 0 to 80 | 80 to 100
CN(C(=O)CCN1CCOC1=O)c1cn(-c2cccnc2)nc1Cl [Compound F31, N-(3-chloro-1-(pyridin-3-yl)-1H-pyrazol-4-yl)-N-methyl-3-(2-oxooxazolidin-3-yl)propanamide] | 80 to 100 | 80 to 100
CCN(C(=O)CCN(CC(F)F)C(=O)CCC(F)(F)F)c1cn(-c2cccnc2)nc1Cl [Compound F89, N-(3-((3-Chloro-1-(pyridin-3-yl)-1H-pyrazol-4-yl)(ethyl)amino)-3-oxopropyl)-N-(2,2-difluoroethyl)-4,4,4-trifluorobutanamide] | 80 to 100 | 80 to 100
CCN(C(=O)CCC(=O)NCc1cccc(Cl)c1)c1cn(-c2cccnc2)nc1Cl [Compound F68, N1-(3-Chloro-1-(pyridin-3-yl)-1H-pyrazol-4-yl)-N4-(3-chlorobenzyl)-N1-ethylsuccinamide] | 0 to 80 | 80 to 100
Cc1nn(-c2cccnc2)cc1N(C)C(=O)CCC(=O)N(C)C [Compound F62, N1,N1,N4-trimethyl-N4-(3-methyl-1-(pyridin-3-yl)-1H-pyrazol-4-yl)succinamide] | 80 to 100 | 80 to 100
CCN(C(=O)CC1CN(C)C1=O)c1cn(-c2cccnc2)nc1Cl (centres unmarked) [Compound F32, N-(3-chloro-1-(pyridin-3-yl)-1H-pyrazol-4-yl)-N-ethyl-2-(1-methyl-2-oxoazetidin-3-yl)acetamide] | 80 to 100 | 80 to 100
CCN(C(=O)CCC(=O)NCCC(F)(F)F)c1cn(-c2cccnc2)nc1Cl [Compound F73, N1-(3-Chloro-1-(pyridin-3-yl)-1H-pyrazol-4-yl)-N1-ethyl-N4-(3,3,3-trifluoropropyl) succinamide] | 80 to 100 | 80 to 100
CCN(C(=O)CCC=NOCCC1CC1(F)F)c1cn(-c2cccnc2)nc1Cl (mixture of isomers) [FA61, (E/Z)-N-(3-Chloro-1-(pyridin-3-yl)-1H-pyrazol-4-yl)-4-((2-(2,2-difluorocyclopropyl)ethoxy)imino)-N-ethylbutanamide] | 80 to 100 | 80 to 100
CCN(C(=O)COC(C)=O)c1cn(-c2cccnc2)nc1Cl [FA72, 2-((3-Chloro-1-(pyridin-3-yl)-1H-pyrazol-4-yl)(ethyl)amino)-2-oxoethyl acetate] | 0 to 80 | 80 to 100
CCN(C(=O)CCC(C)=NOC)c1cn(-c2cccnc2)nc1Cl (mixture of isomers) [Compound F92, (E/Z)-N-(3-chloro-1-(pyridin-3-yl)-1H-pyrazol-4-yl)-N-ethyl-4-(methoxyimino) pentanamide] | 80 to 100 | 80 to 100
